Experimental data from ChEMBL document CHEMBL1201862, “PubChem BioAssay data set” (2004).
Values belong to the compound of their own block, whether it stands above or below them. Active and inactive are the calls of the source.

Experiments:
[1] = (§1) Counterscreen for antagonists of the orexin 1 receptor (OX1R; HCRTR1): Fluorescence-based cell-based high throughput dose response assay to identify antagonists of the parental CHO cell line. [Related pubchem assays (depositor defined):AID434989, AID435008, AID463079, AID485270, AID492963, AID492964, AID492965, AID493232, AID504699, AID504701]; assay type: functional
Orexin receptor type 2 [2] = molecular target: T1, Orexin receptor type 2 (Homo sapiens, UniProt O43614); assay: Counterscreen assay for antagonists of the orexin 1 receptor (OX1R; HCRTR1): Fluorescence-based cell-based dose response assay for antagonists of the orexin 2 receptor (OX2R; HCRTR2), run by assay provider.; assay type: functional
T1 sequence (O43614 whole entry): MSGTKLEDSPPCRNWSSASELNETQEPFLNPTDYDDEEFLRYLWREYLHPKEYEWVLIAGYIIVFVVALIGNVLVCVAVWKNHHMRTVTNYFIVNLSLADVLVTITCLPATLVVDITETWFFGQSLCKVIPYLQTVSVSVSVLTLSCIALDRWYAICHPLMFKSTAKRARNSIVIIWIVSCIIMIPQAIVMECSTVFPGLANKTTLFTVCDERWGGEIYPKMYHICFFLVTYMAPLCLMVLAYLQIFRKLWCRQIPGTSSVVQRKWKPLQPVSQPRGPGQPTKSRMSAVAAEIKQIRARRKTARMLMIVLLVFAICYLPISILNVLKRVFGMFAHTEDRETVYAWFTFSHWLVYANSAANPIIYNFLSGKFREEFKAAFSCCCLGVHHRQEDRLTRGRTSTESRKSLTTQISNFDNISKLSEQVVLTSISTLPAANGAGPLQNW

Orexin receptor type 2 [3] = molecular target: T1, Orexin receptor type 2; assay: Counterscreen assay for antagonists of the orexin 1 receptor (OX1R; HCRTR1): Homogeneous Time Resolved Fluorescence (HTRF)-based cell-based dose response assay for antagonists of the orexin 2 receptor (OX2R; HCRTR2), run by assay provider.; assay type: functional
CHO-K1 = assay: as §1, with “Homogeneous time resolved fluorescence (HTRF)-based” for “Fluorescence-based”, “cell-based” for “cell-based high throughput”, “CHO-K1” for “CHO”; assay type: functional; details: Cricetulus griseus;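 further: potency for inhibition of ATP-stimulated IP1 production as antagonists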
[4] = molecular target: T2, Orexin/Hypocretin receptor type 1 (Homo sapiens, UniProt O43613); assay: Homogeneous Time Resolved Fluorescence (HTRF)-based cell-based high throughput dose response assay for antagonists of the orexin 1 receptor (OX1R; HCRTR1). [Related pubchem assays (depositor defined):AID434989, AID435008, AID463079, AID485270, AID492963, AID492964, AID492965, AID493232, AID504717, AID504718]; assay type: functional
T2 sequence (O43613 whole entry): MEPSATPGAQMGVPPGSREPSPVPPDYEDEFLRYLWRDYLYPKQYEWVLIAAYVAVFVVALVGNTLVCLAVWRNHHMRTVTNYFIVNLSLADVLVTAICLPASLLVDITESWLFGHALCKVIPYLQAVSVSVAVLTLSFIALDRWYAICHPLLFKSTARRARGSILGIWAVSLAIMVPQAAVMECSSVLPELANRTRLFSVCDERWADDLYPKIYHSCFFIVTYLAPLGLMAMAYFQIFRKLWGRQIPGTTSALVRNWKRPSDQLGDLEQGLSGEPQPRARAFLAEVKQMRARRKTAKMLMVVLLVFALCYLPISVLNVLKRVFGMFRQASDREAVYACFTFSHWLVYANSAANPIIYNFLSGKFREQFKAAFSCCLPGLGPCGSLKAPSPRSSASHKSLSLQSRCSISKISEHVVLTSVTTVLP

[5] = molecular target: T2, Orexin/Hypocretin receptor type 1; assay: Fluorescence-based cell-based high throughput dose response assay for antagonists of the orexin 1 receptor (OX1R; HCRTR1). [Related pubchem assays (depositor defined):AID434989, AID435008, AID463079, AID485270, AID492963, AID492964, AID492965, AID493232, AID504717, AID504718]; assay type: functional
HEK293 [6] = assay: optical interference in Abeta FP readout, dose response, artefact control for IDE activator project, biochemical, fluorescence polarization (AID 588442); assay type: functional, cell-based; details: Homo sapiens
Insulin-degrading enzyme [7] = molecular target: T3, Insulin-degrading enzyme (Homo sapiens, UniProt P14735); assay: cellular IDE activation of Abeta substrate cleavage – fluorescence polarization, HEK cells, dose response (AID 588439); assay type: functional, cell-based
T3 sequence (P14735 whole entry): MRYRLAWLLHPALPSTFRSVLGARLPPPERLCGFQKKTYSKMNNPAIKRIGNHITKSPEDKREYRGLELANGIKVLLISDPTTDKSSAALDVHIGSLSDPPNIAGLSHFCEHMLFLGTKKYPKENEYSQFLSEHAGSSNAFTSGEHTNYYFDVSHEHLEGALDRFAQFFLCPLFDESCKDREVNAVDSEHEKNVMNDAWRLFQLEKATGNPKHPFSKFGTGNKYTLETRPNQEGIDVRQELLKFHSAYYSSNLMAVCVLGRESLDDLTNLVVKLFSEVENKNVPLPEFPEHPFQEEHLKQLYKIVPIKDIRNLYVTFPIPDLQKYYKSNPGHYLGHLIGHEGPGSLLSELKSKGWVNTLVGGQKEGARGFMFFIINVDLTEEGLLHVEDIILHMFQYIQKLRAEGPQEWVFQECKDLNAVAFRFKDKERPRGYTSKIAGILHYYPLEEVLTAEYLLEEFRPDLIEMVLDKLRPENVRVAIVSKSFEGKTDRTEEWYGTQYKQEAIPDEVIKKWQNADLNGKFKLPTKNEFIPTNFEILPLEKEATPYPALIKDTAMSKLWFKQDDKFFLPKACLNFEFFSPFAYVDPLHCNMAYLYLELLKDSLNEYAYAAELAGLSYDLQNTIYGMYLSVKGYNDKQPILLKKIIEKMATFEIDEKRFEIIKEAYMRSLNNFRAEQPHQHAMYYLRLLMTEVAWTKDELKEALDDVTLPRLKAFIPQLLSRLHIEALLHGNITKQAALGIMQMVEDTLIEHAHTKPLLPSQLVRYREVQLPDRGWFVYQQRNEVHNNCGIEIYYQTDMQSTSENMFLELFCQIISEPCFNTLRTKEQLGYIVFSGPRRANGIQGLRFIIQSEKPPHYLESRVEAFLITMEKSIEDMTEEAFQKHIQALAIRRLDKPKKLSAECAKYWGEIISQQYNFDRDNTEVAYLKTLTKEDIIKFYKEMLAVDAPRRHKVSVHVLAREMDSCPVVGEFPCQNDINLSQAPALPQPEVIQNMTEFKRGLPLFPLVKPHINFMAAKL

HEK293 [8] = assay: membrane integrity loss in HEK cells – cell-based, fluorescence, cytotoxicity control for IDE activator project, dose response (AID 588440); assay type: functional; details: Homo sapiens;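 further: cytotoxicity by LDH release measuring loss of membrane integrity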
Insulin-degrading enzyme [9] = molecular target: T3, Insulin-degrading enzyme; assay: recombinant IDE activation, cell-free – biochemical, fluorescence polarization, counter-screen for IDE activator project, dose response (AID 588681)
[10] = molecular target: T4, Sentrin-specific protease 8 (Homo sapiens, UniProt Q96LD8); assay: inhibition of human SENP8 cleavage activity – biochemical, luminescence, SAR follow-up (AID 504501); assay type: functional
T4 sequence (Q96LD8 whole entry): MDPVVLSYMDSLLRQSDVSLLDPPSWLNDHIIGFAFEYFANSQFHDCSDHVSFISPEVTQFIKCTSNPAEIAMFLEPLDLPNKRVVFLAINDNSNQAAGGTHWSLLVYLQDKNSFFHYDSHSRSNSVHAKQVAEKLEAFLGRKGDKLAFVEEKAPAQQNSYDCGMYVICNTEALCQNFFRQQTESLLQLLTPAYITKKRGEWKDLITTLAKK

[11] = molecular target: T5, Sentrin-specific protease 6 (Homo sapiens, UniProt Q9GZR1); assay: SAR Analysis of small molecule inhibitors of Sentrin-specific protease 6 (SENP6) using a Luminescent assay. [Related pubchem assays (depositor defined):AID2582, AID2599]; assay type: functional
T5 sequence (Q9GZR1 whole entry): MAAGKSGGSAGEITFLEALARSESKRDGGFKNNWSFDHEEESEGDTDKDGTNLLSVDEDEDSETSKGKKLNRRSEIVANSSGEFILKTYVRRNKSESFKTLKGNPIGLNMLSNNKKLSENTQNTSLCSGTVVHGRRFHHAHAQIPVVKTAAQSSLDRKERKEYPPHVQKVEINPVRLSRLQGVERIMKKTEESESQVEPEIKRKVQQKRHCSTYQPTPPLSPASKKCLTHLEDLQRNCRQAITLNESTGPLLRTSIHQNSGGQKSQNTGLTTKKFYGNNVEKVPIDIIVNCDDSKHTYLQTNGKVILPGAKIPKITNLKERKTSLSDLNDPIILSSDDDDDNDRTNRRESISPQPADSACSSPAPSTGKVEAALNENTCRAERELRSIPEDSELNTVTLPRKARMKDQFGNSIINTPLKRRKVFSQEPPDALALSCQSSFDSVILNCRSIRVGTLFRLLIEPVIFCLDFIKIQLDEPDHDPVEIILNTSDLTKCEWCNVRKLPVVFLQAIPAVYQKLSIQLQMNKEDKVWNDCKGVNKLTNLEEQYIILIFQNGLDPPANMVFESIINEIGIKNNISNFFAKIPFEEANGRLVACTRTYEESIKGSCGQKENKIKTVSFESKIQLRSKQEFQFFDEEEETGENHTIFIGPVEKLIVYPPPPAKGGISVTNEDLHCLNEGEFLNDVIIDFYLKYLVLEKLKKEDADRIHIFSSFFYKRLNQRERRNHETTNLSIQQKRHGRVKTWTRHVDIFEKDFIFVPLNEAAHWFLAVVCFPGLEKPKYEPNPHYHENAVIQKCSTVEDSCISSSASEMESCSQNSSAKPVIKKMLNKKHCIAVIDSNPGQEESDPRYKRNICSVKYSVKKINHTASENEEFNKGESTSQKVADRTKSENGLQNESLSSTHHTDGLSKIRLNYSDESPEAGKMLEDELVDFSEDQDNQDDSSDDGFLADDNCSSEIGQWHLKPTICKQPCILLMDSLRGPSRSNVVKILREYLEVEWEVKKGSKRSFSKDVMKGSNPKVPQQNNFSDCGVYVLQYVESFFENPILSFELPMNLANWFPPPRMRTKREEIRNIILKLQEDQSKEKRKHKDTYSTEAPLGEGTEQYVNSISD

[12] = molecular target: T6, Sentrin-specific protease 7 (Homo sapiens, UniProt Q9BQF6); assay: inhibition of human SENP7 cleavage activity – biochemical, luminescence, SAR follow-up (AID 504497); assay type: functional
T6 sequence (Q9BQF6 whole entry): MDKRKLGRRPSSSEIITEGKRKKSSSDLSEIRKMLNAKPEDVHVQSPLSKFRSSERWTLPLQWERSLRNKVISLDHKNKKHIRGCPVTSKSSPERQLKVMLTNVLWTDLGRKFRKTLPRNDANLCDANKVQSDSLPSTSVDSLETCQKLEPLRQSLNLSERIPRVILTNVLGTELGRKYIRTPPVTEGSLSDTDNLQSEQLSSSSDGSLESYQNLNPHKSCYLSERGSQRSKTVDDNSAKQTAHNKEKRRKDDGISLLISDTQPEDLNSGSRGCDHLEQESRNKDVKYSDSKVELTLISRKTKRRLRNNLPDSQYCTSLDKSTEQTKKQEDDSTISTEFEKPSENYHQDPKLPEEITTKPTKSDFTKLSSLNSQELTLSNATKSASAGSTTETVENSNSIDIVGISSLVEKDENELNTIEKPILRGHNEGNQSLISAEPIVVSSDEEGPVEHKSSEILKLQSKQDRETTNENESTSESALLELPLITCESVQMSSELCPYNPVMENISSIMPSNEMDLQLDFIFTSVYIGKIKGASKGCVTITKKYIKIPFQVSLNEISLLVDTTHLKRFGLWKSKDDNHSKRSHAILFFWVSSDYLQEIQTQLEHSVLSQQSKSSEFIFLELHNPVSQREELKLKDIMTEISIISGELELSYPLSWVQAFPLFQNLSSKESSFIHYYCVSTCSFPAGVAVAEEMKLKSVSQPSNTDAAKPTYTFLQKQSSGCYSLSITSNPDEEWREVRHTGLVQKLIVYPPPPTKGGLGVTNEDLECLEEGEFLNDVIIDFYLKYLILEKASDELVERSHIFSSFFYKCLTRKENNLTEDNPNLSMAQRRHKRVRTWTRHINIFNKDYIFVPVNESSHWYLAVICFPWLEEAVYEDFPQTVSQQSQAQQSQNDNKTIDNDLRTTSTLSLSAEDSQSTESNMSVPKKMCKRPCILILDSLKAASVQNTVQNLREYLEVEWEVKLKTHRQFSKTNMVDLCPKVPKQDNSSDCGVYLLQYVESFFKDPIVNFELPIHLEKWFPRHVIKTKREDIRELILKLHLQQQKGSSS

Caspase-3 = molecular target: T7, Caspase-3 (Homo sapiens, UniProt P42574); assay: SAR Analysis of small molecule inhibitors of Sentrin-specific proteases (SENPs) using a Caspase-3 Selectivity assay. [Related pubchem assays (depositor defined):AID2540, AID2599, AID434973, AID489001]; assay type: functional
T7 sequence (P42574 whole entry): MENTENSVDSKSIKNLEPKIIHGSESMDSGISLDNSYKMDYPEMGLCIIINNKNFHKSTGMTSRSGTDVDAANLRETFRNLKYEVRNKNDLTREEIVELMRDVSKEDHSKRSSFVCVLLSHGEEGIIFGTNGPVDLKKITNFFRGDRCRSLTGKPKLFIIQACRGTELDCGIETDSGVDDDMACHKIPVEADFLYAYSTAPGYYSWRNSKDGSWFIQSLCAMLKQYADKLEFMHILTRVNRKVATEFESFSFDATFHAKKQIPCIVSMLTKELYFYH

SMILES: COC(=O)c1ccccc1NC(=O)CSc1nc(O)cc(=O)n1C1CCCC1
- IC50 [1]: > 49.8 µM (inactive)
- IC50 (Orexin receptor type 2 [2]): 56.2 µM (inactive)
- IC50 (Orexin receptor type 2 [3]): > 50 µM (inactive)
- IC50 (CHO-K1): > 66.2 µM (inactive)
- IC50 [4]: 0.137 µM (active)
- IC50 [5]: 4.86 µM (active)

SMILES: C=CCN1C(=O)c2ccc(C(=O)OCC(=O)N(CC)C3CCS(=O)(=O)C3)cc2C1=O (stereo not drawn)
- EC50 (HEK293 [6]): > 54.7 µM (inactive)
- EC50 (Insulin-degrading enzyme [7]): > 54.7 µM (inactive)
- IC50 (HEK293 [8]): > 89.2 µM (inactive)
- EC50 (Insulin-degrading enzyme [9]): > 54.7 µM (inactive)

- IC50 [11]: > 99 µM (inactive)
- IC50 [12]: > 99 µM (inactive)
- IC50 (Caspase-3): > 99 µM (inactive)
SMILES: COc1ccc(C2C(C#N)=C(/N=C/N(C)C)Oc3c2c(C)nn3-c2ccccc2)cc1 (stereo not drawn)
- IC50 [10]: > 99 µM (inactive)

- IC50 [11]: > 99 µM (inactive)
- IC50 [12]: > 99 µM (inactive)
- IC50 (Caspase-3): > 99 µM (inactive)
SMILES: Fc1cc(F)cc(-c2noc(/C=C/c3ccccc3)n2)c1
- IC50 [10]: > 99 µM (inactive)
